The NIST ThermoML archive (doi:10.1021/je034097r)
Numbers after ± are expanded uncertainties.

Details: Capillary rise

COC [dimethyl ether]
Details | surface tension liquid-gas [mN/m]
213.12 K | 24.52 ± 0.31
223.11 K | 22.95 ± 0.31
228.19 K | 22.26 ± 0.31
233.31 K | 21.44 ± 0.31
238.15 K | 20.75 ± 0.3
243.12 K | 19.81 ± 0.3
248.12 K | 19.3 ± 0.3
253.09 K | 18.54 ± 0.3
258.11 K | 17.71 ± 0.3
263.12 K | 16.99 ± 0.3
268.08 K | 16.27 ± 0.3
273.08 K | 15.43 ± 0.3
278.06 K | 14.6 ± 0.3
283.07 K | 13.97 ± 0.3
288.04 K | 13.16 ± 0.3
293.09 K | 12.66 ± 0.3
298.08 K | 11.73 ± 0.3
303.2 K | 11 ± 0.3
308.12 K | 10.22 ± 0.3
313.12 K | 9.557 ± 0.3
318.18 K | 9.089 ± 0.3
323.18 K | 8.428 ± 0.3
328.14 K | 7.64 ± 0.3
333.14 K | 7.045 ± 0.3
338.09 K | 6.368 ± 0.3
343.13 K | 5.717 ± 0.3
348.07 K | 5.148 ± 0.3
353.11 K | 4.435 ± 0.3
358.11 K | 3.94 ± 0.3
363.1 K | 3.315 ± 0.3
368.04 K | 2.779 ± 0.3
